The target in one assay is EGFR tyrosine kinase (Homo sapiens, UniProt P00533). The assay can be described thus: EGFR tyrosine kinase inhibition in vitro (Invitrogen EGFR inhibitor screening kit PV3193).
The target of a further assay is T1, aurora kinase B (Homo sapiens, UniProt Q96GD4).
T1 construct: purchased Invitrogen PV3174
Nature of the assay: Aurora kinase B inhibition in vitro (Invitrogen aurora kinase screening kit PV3174). The class given is biochemical.

The subject of assay [1] is Jurkat E6-1 human T-cell lymphoma. Nature of the assay: Tumor cell inhibition ratio, CCK-8 kit, Jurkat E6-1. The note with it: Jurkat E6.1, read-out: Antiproliferative effect (inhibition ratio) E6-1. (Tetrazolium assays rely on reduction of a dye to a coloured formazan, in cell work by metabolically active cells.)
From the text: (§1) The inhibitory activities of the compounds on tumor cells in vitro
Assay [2] relates to MDA-MB-435s human breast carcinoma cells. Nature of the assay: Tumor cell inhibition ratio, CCK-8 kit, MDA-MB-435s. The following applies: read-out: Antiproliferative effect (inhibition ratio) 435s.
From the text: as §1
In assay [3] the test system is PANC-1 human pancreatic cancer cells. Nature of the assay: Tumor cell inhibition ratio, CCK-8 kit, PANC-1. The note with it: PANC-1, read-out: Antiproliferative effect (inhibition ratio) PANC-1.
From the text: as §1
Assay [4] concerns A549 human lung cancer cells. The assay can be described thus: Tumor cell inhibition ratio, CCK-8 kit, A549. The following applies: A549, read-out: Antiproliferative effect (inhibition ratio) A549.
From the text: as §1
The test system of assay [5] is Hut78 T-Lymphocytic Leukemia cells. The assay can be described thus: Tumor cell inhibition ratio, CCK-8 kit, Hut78. The following applies: Homo sapiens, HuT78, read-out: Antiproliferative effect (inhibition ratio) Hut-78.
From the text: as §1
The subject of assay [6] is Hep3B2.1-7 human hepatoma carcinoma cells. Nature of the assay: Tumor cell inhibition ratio, CCK-8 kit, Hep3B. The following applies: read-out: Antiproliferative effect (inhibition ratio) Hep3B.
From the text: as §1
Assay [7] concerns Colo320 human rectal cancer cells. Nature of the assay: Tumor cell inhibition ratio, CCK-8 kit, Colo320. The following applies: COLO 320, read-out: Antiproliferative effect (inhibition ratio) Colo320.
From the text: as §1
Assay [8] concerns PC-3 human carcinoma of prostate. Nature of the assay: Tumor cell inhibition ratio, CCK-8 kit, PC-3. The note with it: read-out: Antiproliferative effect (inhibition ratio) PC-3.
From the text: as §1
Assay [9] concerns K562 human chronicity marrow leukemic cells. Nature of the assay: Tumor cell inhibition ratio, CCK-8 kit, K562. The note with it: K562, read-out: Antiproliferative effect (inhibition ratio) K562.
From the text: as §1

The structures appear in SMILES notation.

T1 sequence (Q96GD4 whole entry): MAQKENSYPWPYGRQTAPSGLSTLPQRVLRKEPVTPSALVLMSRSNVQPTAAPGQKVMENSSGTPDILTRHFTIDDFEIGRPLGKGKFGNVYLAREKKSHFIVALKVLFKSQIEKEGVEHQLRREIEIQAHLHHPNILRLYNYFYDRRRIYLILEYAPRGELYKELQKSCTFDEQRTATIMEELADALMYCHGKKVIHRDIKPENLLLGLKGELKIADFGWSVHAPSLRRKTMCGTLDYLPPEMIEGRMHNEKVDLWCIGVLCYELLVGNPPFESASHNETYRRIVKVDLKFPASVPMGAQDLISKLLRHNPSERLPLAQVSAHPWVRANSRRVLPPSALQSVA
Sequence of EGFR tyrosine kinase (P00533 25-1210): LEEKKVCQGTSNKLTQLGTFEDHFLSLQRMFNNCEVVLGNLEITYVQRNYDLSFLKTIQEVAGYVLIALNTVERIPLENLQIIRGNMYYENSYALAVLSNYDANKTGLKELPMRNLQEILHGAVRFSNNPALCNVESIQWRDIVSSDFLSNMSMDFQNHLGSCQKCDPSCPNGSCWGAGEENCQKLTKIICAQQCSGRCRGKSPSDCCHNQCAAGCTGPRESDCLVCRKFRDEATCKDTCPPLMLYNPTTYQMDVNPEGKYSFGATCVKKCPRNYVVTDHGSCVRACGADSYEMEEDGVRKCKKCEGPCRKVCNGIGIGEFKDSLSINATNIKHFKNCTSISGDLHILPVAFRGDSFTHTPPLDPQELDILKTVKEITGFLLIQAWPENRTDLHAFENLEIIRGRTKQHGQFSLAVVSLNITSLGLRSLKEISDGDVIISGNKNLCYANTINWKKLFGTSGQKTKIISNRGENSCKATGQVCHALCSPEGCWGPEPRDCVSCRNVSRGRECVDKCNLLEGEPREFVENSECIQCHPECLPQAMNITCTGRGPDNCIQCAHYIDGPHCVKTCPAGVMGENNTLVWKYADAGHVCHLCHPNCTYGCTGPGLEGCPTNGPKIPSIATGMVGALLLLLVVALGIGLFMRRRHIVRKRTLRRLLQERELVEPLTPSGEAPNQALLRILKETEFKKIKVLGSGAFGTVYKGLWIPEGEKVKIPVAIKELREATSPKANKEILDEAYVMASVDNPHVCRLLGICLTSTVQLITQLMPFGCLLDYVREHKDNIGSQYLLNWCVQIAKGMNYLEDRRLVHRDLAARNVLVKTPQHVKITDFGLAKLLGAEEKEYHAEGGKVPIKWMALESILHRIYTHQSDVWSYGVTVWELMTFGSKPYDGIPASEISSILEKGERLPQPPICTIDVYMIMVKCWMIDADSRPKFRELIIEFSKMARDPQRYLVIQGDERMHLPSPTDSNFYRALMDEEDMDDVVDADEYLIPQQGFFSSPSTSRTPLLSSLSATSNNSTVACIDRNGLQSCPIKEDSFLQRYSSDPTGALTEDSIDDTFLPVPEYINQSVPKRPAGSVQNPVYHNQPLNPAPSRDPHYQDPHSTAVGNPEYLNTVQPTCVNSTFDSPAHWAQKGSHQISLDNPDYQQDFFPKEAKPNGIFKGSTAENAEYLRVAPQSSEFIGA
From the text for EGFR tyrosine kinase: The inhibitory activities of EGFR tyrosine kinase in vitro
Erlotinib hydrochloride was used as a positive control drug.

With `CS(=O)(=O)CCNCc1ccc(-c2ccc3c(c2)C2=Nc4cc(Cl)ccc4CN2C=N3)o1` [Compound V-36, N-((5-(11-chloro-8H-quinazolino[4,3-b]quinazoline-2-yl)furan-2-yl)methyl)-2-(methylsulfonyl)ethylamine], the figures for the “The inhibition ratio of the compound on EGFR(%)” value at EGFR tyrosine kinase (40 μM) and on EGFR tyrosine kinase (200 μM) were 55.6% and 87.9%, respectively. Also, the “The inhibition ratio of the compound on Aurora B(%)” value at aurora kinase B (40 μM) is given as 52.6%; on aurora kinase B (200 μM) it was 97.9%.
Regarding `COc1cc2c(cc1OCCCN1CCOCC1)C1=Nc3cc(COS(C)(=O)=O)cc([N+](=O)[O-])c3CN1C=N2` [Compound V-29], the entries for the “The inhibition ratio of the compound on EGFR(%)” value on EGFR tyrosine kinase (40 μM) and on EGFR tyrosine kinase (200 μM) were 35.2% and 86.5%, respectively. Also, the “The inhibition ratio of the compound on Aurora B(%)” value on aurora kinase B (40 μM) came out at 11.2%; at aurora kinase B (200 μM), 78.9%.
`COc1cc2c(cc1OCCCN1CCNCC1)C1=Nc3cccc(F)c3CN1C=N2` [Compound V-25, 9-fluoro-3-methoxy-2-(3-(piperazinyl-1-yl)propoxy)-8H-quinazolino[4,3-b]quinazoline]: the inhibition at 10 µM came out at 31.1% in assay [1]; 20.4% in [2]; 44.2% in assay [3]; 47% in assay [4]; 19% in assay [5]; 21.3% in [6]. Also, the inhibition at 10 µM in assay [7] is 33.5%; in assay [8] it was 53.4%; in assay [9], 44.1%. The inhibition at 100 µM in assay [1] stood at 81.3%; in [2], 77%; in assay [3], 88.6%; in assay [4], 79.3%; in [5] it was 21.9%; in assay [6], 64.7%. Also, the inhibition at 100 µM was 79.2% in [7], 64.4% in [8] and 82.8% in assay [9].
Consider `COc1cc2c(cc1OC)C1=Nc3ccc(F)c(Cl)c3CN1C=N2` [Compound V-30, 9-chloro-10-fluoro-2,3-dimethoxy-8H-quinazolino[4,3-b]quinazoline], for which the figures for the “The inhibition ratio of the compound on EGFR(%)” value on EGFR tyrosine kinase (40 μM) and on EGFR tyrosine kinase (200 μM) were 27.8% and 82.1%, respectively. Also, the “The inhibition ratio of the compound on Aurora B(%)” value at aurora kinase B (40 μM) was determined as 46.3%; on aurora kinase B (200 μM), 79.6%.
Consider `COc1cc2c(cc1OCCCN1CCOCC1)C1=Nc3cccc(C#N)c3CN1C=N2` [Compound V-27, 3-methoxy-2-(3-morpholinylpropoxy)-8H-quinazolino[4,3-b]quinazoline-9-nitrile], for which the inhibition at 10 µM turned out to be 24% in assay [1]; 12% in assay [2]; 41.8% in assay [3]; 39.8% in assay [4]; 65.6% in assay [5]; 2.44% in assay [6]. Also, the inhibition at 10 µM came to 34.5% in assay [7], 25.2% in assay [8] and 22.4% in assay [9]. Further, the inhibition at 100 µM worked out at 75.4% in [1]; 79.7% in assay [2]; 99.8% in [3]; 80% in assay [4]; 95.9% in assay [5]; 67.3% in [6]. The inhibition at 100 µM amounted to 84.8% in assay [7], 84% in assay [8] and 62.2% in assay [9].
Turning to `COc1cc2c(cc1OCCCN1CCOCC1)C1=Nc3ccc(F)c(Cl)c3CN1C=N2` [Compound V-23, 4-(3-((9-chloro-10-fluoro-3-methoxy-8H-quinazolino[4,3-b]quinazoline-2-yl)oxy)propyl)morpholine di-p-toluenesulfonate], the inhibition at 10 µM in [1] stood at 56.3%; in assay [2], 20.7%; in assay [3], 21.5%; in [4], 10.4%; in assay [5] it was 42%; in assay [6], 27.1%. Further, the inhibition at 10 µM in assay [7] was 52.3%; in assay [8], 30.7%; in assay [9], 58.7%. The inhibition at 100 µM is 77.5% in assay [1]; 52.2% in assay [2]; 98.8% in assay [3]; 22.5% in assay [4]; 99.8% in assay [5]; 48.7% in assay [6]. Also, the inhibition at 100 µM in assay [7] came to 99.5%; in assay [8] it was 97.6%; in [9], 73.4%.
Take `Cc1cc(Nc2cc(N3CCN(C)CC3)nc(Sc3ccc(NC(=O)C4CC4)cc3)n2)n[nH]1` [VX-680, reference compound]: the “The inhibition ratio of the compound on Aurora B(%)” value on aurora kinase B (40 μM) came out at 35.2%; on aurora kinase B (200 μM) it was 81.6%.
For `C#Cc1cccc2c1CN1C=Nc3cc(OC)c(OCCCN4CCOCC4)cc3C1=N2` [Compound V-26, 4-(3-((9-ethynyl-3-methoxy-8H-quinazolino[4,3-b]quinazoline-2-yl)oxy)propyl)morpholine], the inhibition at 10 µM in assay [1] amounted to 44.6%; in assay [2], 38%; in assay [3], 40.7%; in [4], 27.7%; in assay [5], 32.1%; in assay [6], 28.4%. Moreover, the inhibition at 10 µM in assay [7] was determined as 32.1%; in [8], 5.86%; in [9] it was 4.29%. Further, the inhibition at 100 µM was 85.4% in assay [1]; 71.4% in [2]; 76.6% in assay [3]; 93.6% in [4]; 72.4% in [5]; 89.5% in assay [6]. The inhibition at 100 µM in [7] was 81.4%; in [8] it was 30.3%; in assay [9], 11.7%.
Regarding `CS(=O)(=O)CCNCc1ccc(-c2ccc3c(c2)C2=Nc4ccc(F)c(Cl)c4CN2C=N3)o1` [Compound V-34, N-((5-(9-chloro-10-fluoro-8H-quinazolino[4,3-b]quinazoline-2-yl)furan-2-yl)methyl)-2-(methylsulfonyl)ethylamine], the “The inhibition ratio of the compound on EGFR(%)” value came to 21.6% on EGFR tyrosine kinase (40 μM) and 72.6% on EGFR tyrosine kinase (200 μM). In addition, the “The inhibition ratio of the compound on Aurora B(%)” value on aurora kinase B (40 μM) was determined as 17.8%; on aurora kinase B (200 μM), 92.6%.
For `C#Cc1cccc2c1CN1C=Nc3ccc(-c4ccc(CNCCS(C)(=O)=O)o4)cc3C1=N2` [Compound V-35, N-((5-(9-ethynyl-8H-quinazolino[4,3-b]quinazoline-2-yl)furan-2-yl)methyl)-2-(methylsulfonyl)ethylamine] the same measures were 13.3%, 75.8%, 3.3% and 79.8%.
Taken in the same sequence, the figures for `COCCOc1cc2c(cc1OCCOC)C1=Nc3cccc(NC(=O)c4ccccc4)c3CN1C=N2` [Compound V-12, N-{2,3-bis(2-methoxyethoxy)-8H-quinazolino[4,3-b]quinazoline}benzamide] were 25.8%, 62.7%, 40.1% and 87.9%.
Regarding `COCCOc1cc2c(cc1OCCOC)C1=Nc3cc(CO)cc(N)c3CN1C=N2` [Compound V-21, 9-amino-11-hydroxymethyl-2,3-bis(2-methoxyethoxy)-8H-quinazolino[4,3-b]quinazoline], the inhibition at 10 µM was determined as 43.5% in assay [1]; 67% in assay [2]; 52.7% in assay [3]; 45.3% in assay [4]; 10.3% in assay [5]; 21.8% in [6]. Moreover, the inhibition at 10 µM was determined as 31.8% in assay [7], 27.6% in assay [8] and 26.9% in assay [9]. In addition, the inhibition at 100 µM was determined as 90.3% in assay [1]; 74.9% in [2]; 89.4% in assay [3]; 78% in assay [4]; 52.7% in [5]; 86.3% in [6]. Further, the inhibition at 100 µM in assay [7] was 87%; in assay [8], 62.6%; in assay [9], 81.6%.
